Assay results from patent publication US9155309B2, “Virus inactivating sheet” (priority 2009, dated 2015).
Like-named read-outs stand apart in the source and are kept apart here.

System: influenza virus (influenza A/Kitakyusyu/159/93(H3N2))
Assay type: cell-based
Conditions: 10 minutes at room temperature, PBS control 128

Compound: [Cu+].[Cu+].[S-2] [compound 26, COPPER(I) SULFIDE]
- HA TITER (material concentration 0.5 percent by mass in PBS): 64
- HA TITER (material concentration 5 percent by mass in PBS): 16
